# US7955808B2, “Bitter taste receptors” (Deutsches Institut für Ernährungsorschung, Stiftung des …, priority 2002, dated 2011)
# Where two headings read alike, the source gives them in different places.
# How the values were obtained:
# hTAS2R38 = target: T1, hTAS2R38 (Homo sapiens, UniProt P59533); assay: FLIPR assay, heterologous expression of hTAS2R38; type: cell-based
# T1 construct: gene-specific primers that span the complete coding region ... contains the first 45 amino acids of the rat somatostatin type 3 receptor
# T1 sequence (P59533 1-333 A49P/I296V): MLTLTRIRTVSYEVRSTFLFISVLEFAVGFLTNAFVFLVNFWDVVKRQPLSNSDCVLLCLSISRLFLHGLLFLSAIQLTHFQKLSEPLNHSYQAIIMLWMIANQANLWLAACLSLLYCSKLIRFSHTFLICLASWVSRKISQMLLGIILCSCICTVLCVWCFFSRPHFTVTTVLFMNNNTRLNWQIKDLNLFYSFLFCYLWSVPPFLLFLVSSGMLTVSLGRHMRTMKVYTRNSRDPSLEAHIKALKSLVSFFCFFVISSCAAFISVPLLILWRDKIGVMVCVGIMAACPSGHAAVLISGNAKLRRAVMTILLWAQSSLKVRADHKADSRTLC
# Text: These cells stably express a chimeric G protein constructed from human Gα16 and rat gustducin. Finally, we seeded the transfected cells at a density of 3×10^3 cells per well into 96-well black-wall, clear-bottom microtiter plates (Greiner).
# Co-transfection of TAS2Rs with gustducin and phospholipase-Cβ2 into HEK-293 cells. Alternatively, we transfected simultaneously plasmid DNAs encoding one of the TAS2Rs, phospholipase-Cβ2 and α-gustducin into HEK-293 cells using the lipofectamine method. Additional cotransfection of G-protein β and γ-subunits may improve the bitter tastant-induced responses. Thereafter, the transfected cells were seeded at a density of 3×10^3 cells per well into 96-well black-wall, clear-bottom microtiter plates (Greiner).
# Thereafter, cells were gently washed in HBS by an automated plate washer (Denley Cellwash, Labsystenms) and transferred to the FLIPR (Molecular Devices). The FLIPR integrates an argon laser excitation source, a 96-well pipettor, and a detection system utilizing a Charged Coupled Device imaging camera. […] Fluorescence data were collected 1 min before and 10 min after stimulation. Data were collected every 6 s before and every 1 s after agonist stimulation. 50 μl of 3× concentrated agonists were delivered within 2 by the integrated 96-well pipettor to the wells containing 100 μl HBS. Agonist responses were quantified using the amplitudes of the fluorescence peaks. We averaged the responses of five wells containing cells expressing the same receptor and that received the same stimulus. Calcium traces were determined in triplicate of mock-transfected cells stimulated with the same concentration of tastant.
# hTAS2R16 [1] = target: T2, hTAS2R16 (Homo sapiens, UniProt Q9NYV7, R222H); assay: FLIPR assay, heterologous expression of hTAS2R16; type: cell-based
# T2 construct: gene-specific primers that span the complete coding region of the individual hTAS2R genes; first 45 amino acids of rat somatostatin type 3 receptor (cell surface-targeting signal) (N); expressed in transfected cells; host or cells: HEK293/15 cells (HEK293 stably expressing Galpha15), transient transfection
# T2 sequence (Q9NYV7 1-291 R222H): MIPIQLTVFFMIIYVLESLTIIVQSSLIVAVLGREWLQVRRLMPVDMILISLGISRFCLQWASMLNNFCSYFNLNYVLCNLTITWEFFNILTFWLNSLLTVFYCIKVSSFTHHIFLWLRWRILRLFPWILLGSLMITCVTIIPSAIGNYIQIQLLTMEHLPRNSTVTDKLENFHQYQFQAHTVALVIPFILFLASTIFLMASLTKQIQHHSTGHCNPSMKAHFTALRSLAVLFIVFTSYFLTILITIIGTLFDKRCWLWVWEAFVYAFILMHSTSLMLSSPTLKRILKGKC
# Text: (§1) Transient transfection of TAS2Rs into HEK-293T-Gα16gustducin44 cells.
# hTAS2R10 = target: T3, hTAS2R10 (Homo sapiens, UniProt Q9NYW0, T156M); assay: FLIPR assay, heterologous expression of hTAS2R10; type: cell-based
# T3 construct: gene-specific primers that span the complete coding region of the individual hTAS2R genes; first 45 amino acids of rat somatostatin type 3 receptor (cell surface-targeting signal) (N); expressed in transfected cells; host or cells: HEK-293T-Gα16gustducin44 cells (alternatively HEK-293 co-transfected with phospholipase-Cβ2 and α-gustducin)
# T3 sequence (Q9NYW0 1-307 T156M): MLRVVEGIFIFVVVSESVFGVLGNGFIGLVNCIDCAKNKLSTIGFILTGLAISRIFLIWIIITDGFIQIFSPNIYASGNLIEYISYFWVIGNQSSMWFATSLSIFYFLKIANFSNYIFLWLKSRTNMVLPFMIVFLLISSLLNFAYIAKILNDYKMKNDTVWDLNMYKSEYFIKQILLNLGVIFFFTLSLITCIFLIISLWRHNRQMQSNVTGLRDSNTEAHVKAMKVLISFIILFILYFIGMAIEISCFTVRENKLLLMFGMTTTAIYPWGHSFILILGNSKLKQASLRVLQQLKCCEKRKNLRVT
# Text: as §1
# human panelists [2] = assay: Human taste adaptation experiment; type: in vivo; settings: for initial bitterness score by test panel: 8 mM, 15 s; for own bitterness during prolonged stimulation (adaptation): 120 s or 180 s in the mouth
# Experimental: To investigate adaptation, the 8 panelists first maintained aqueous solutions (5 ml) of phenyl-β-D-glucopyranoside (8 mM), phenyl-alpha-D-glucopyranoside (180 mM), salicin (8 mM), or helicin (8 mM) for 15 s in their oral cavities and evaluated the bitter intensity as described above. After 30 min, they kept a denatonium benzoate solution (5 ml, 0.0003 mM) for 15 s in their mouth and evaluated its bitterness. The panelists spat off the denatonium benzoate solution, took up the phenyl-β-D-glucopyranoside or the phenyl-alpha-D-glucopyranoside solutions orally for 120 s or 180 s and judged their bitterness intensity after 15, 30, 60, 120 and 180s. Thereafter, the panelists spat off these solutions and then sequentially took up salicin, helicin (5 ml, 8 mM) and denatonium benzoate (5 ml, 0.0003 mM) and evaluated bitterness intensities of these solutions after 15 s. After an additional 30 min, the first experiment was repeated. The data of three different sessions for each panelist were averaged. Intensity values between individuals and separate sessions differed by not more than ±0.5 units.
# hTAS2R16 [3] = target: T2, hTAS2R16; assay: FLIPR calcium assay, hTAS2R16-expressing HEK293/15 transfectants; type: cell-based
# Experimental: A fluorescence imaging plate reader (FLIPR, Molecular Devices) was used to functionally screen cell populations transiently transfected with expression vectors encoding the above-described 24 bitter receptors and to establish concentration-response curves for hTAS2R16 and hTASR10. […] For the FLIPR experiments the HEK293/15 cells were grown to 50% confluence. […] After 48 h the cells in each well were transfected using Lipofectamine 2000 and 24-30 h later were loaded with FIuo4AM (Molecular Probes). Thereafter they were stimulated with bitter compounds (SigmaAldrich, further purified by reversed-phase HPLC to >99% purity). Calcium signals were recorded simultaneously from each well at 1 Hz at 510 nm after excitation at 488 nm and the recordings were corrected for cell density. […] The calculations rest on at least four independent transfection experiments.
# EC50 and threshold values obtained with hTAS2R16-expressing transfectants are shown in Table 1 below and the results are described in Example 4.
# human panelists [4] = assay: Human taste experiments: bitter thresholds and dose-response by sensory panel; type: in vivo; settings: for Threshold Value Human: bitter threshold, triangle test, tap water; for EC50: bitterness intensity dose-response
# Experimental: 15 experienced panelists in a sensory panel room at 22-25° C. determined bitter thresholds on three different sessions using a triangle test with tap water as solvent, according to methodology set out in J. Agric. Food Chem., 49, 231-238 (2001), or Mailgaard M et al, “Sensory Evaluation Techniques” (CRC Press LLC, New York 1999). For dose-response relations, bitter tastant concentration series were presented to 10 trained panelists in random order. The panelists ranked the samples in increasing order of intensity and, for each concentration, evaluated bitterness intensity on a scale from 0 to 5 (ref. 24). The dose-response curves of three different sessions were averaged. The intensity values between individuals and separate sessions differed by not more than 0.5 units.
Approx. Threshold (hTAS2R38) [µM],EC50 (hTAS2R38; read-out: EC50) [mM],Compound,receptor activation (in words) (hTAS2R38),Threshold (hTAS2R16 [1]; hTAS2R16),Threshold Value Human (human panelists [4]) [mM],further results
–,–,O=c1cc(O)[nH]c(=S)[nH]1 [2-Thiobarbituric acid],activated,–,–,reacts at (hTAS2R38): reacts at 10 mM
20,0.18,Cc1cc(=O)[nH]c(=S)[nH]1 [4(6)-Methyl-2-thiouracil],activated,–,–,–
–,–,O=[N+]([O-])c1ccc(O[C@@H]2O[C@H](CO)[C@@H](O)[C@H](O)[C@H]2O)cc1 [4-Nitrophenyl-β-D-Glucoside],–,1 − 3 mM,–,–
–,–,O=[N+]([O-])c1ccc(O[C@@H]2O[C@H](CO)[C@@H](O)[C@H](O)[C@@H]2O)cc1 [4-Nitrophenyl-β-D-Mannoside],–,1 − 3 mM,–,–
–,–,O=[N+]([O-])c1ccc(S[C@@H]2O[C@H](CO)[C@@H](O)[C@H](O)[C@H]2O)cc1 [4-Nitrophenyl-β-D-Thioglucoside],–,1 − 5 mM,–,–
2,0.015,CC(=O)NC(N)=S [Acetylthiourea],activated,–,–,–
–,–,COc1cc2c(cc1OC)[C@@]13CCN4CC5=CCO[C@H]6CC(=O)N2[C@H]1[C@H]6[C@H]5C[C@H]43 [Brucine],–,–,–,EC50 (hTAS2R10): 0.06 mM; Approx. Threshold (hTAS2R10; hTAS2R10): 0.01 mM; receptor activation (in words) (hTAS2R10; hTAS2R10): activated
–,–,"OC[C@H]1O[C@@H](Oc2ccccc2)[C@H](O)[C@@H](O)[C@@H]1O [Compound 1, phenyl-beta-D-glucopyranoside]",–,0.07 ± 0.02 mM,0.1 ± 0.05,"initial bitterness score by test panel (human panelists [2]): equally intensely bitter; own bitterness during prolonged stimulation (adaptation) (human panelists [2]): declined; EC50 (hTAS2R16 [3]): 1.1 mM; Threshold Value FLIPR (hTAS2R16 [3]): 0.07 ± 0.02 mM; EC50 (human panelists [4]): 0.7 mM; EC50 (hTAS2R16 [1]; hTAS2R16, read-out: EC50): 1.1 ± 0.1 mM"
300,~2,"O=c1cc[nH]c(=S)[nH]1 [Compound 2-Thiouracil, 2-Thiouracil]",activated,–,–,–
–,–,"O=Cc1ccccc1O[C@@H]1O[C@H](CO)[C@@H](O)[C@H](O)[C@H]1O [Compound 3, helicin]",–,0.3 ± 0.1 mM,0.4 ± 0.1,"initial bitterness score by test panel (human panelists [2]): equally intensely bitter; bitterness after prolonged stimulation with phenyl-beta-D-glucopyranoside (cross-adaptation) (human panelists [2]; in vivo): less bitter; EC50 (hTAS2R16 [3]): 2.3 mM; Threshold Value FLIPR (hTAS2R16 [3]): 0.3 ± 0.1 mM; EC50 (human panelists [4]): 2.2 mM; EC50 (hTAS2R16 [1]; hTAS2R16, read-out: EC50): 2.3 ± 0.4 mM"
–,–,"OC[C@H]1O[C@@H](Oc2ccc(O)cc2)[C@H](O)[C@@H](O)[C@@H]1O [Compound 4, arbutin]",–,0.5 ± 0.2 mM,0.9 ± 0.3,"EC50 (hTAS2R16 [3]): 5.8 mM; Threshold Value FLIPR (hTAS2R16 [3]): 0.5 ± 0.2 mM; EC50 (human panelists [4]): 5.4 mM; EC50 (hTAS2R16 [1]; hTAS2R16, read-out: EC50): 5.8 ± 0.9 mM"
–,–,"O=[N+]([O-])c1ccccc1O[C@@H]1O[C@H](CO)[C@@H](O)[C@H](O)[C@H]1O [Compound 5, 2-nitro-phenyl-beta-D-glucopyranoside]",–,0.3 − 1 mM,–,Threshold Value FLIPR (hTAS2R16 [3]): 1.5 ± 0.5 mM
–,–,"OC[C@H]1O[C@@H](Oc2ccc3ccccc3c2)[C@H](O)[C@@H](O)[C@@H]1O [Compound 6, naphthyl-beta-D-pyranoside]",–,–,0.2 ± 0.1,"EC50 (hTAS2R16 [3]): 1 mM; EC50 (human panelists [4]; Homo sapiens): 1.4 mM; EC50 (hTAS2R16 [1]; hTAS2R16, read-out: EC50): 1 ± 0.1 mM"
–,–,"COC1OC(CO)C(O)C(O)C1O [Compound 7, methyl-beta-D-lucopyranoside]",–,–,32 ± 11,–
–,–,"N#CC(O[C@@H]1O[C@H](CO[C@@H]2O[C@H](CO)[C@@H](O)[C@H](O)[C@H]2O)[C@@H](O)[C@H](O)[C@H]1O)c1ccccc1 (stereo partly shown) [Compound 8, amygdalin]",–,–,–,EC50 (hTAS2R16 [3]): 20 mM; EC50 (hTAS2R16 [1]): 20 ± 3.4 mM
–,–,"O=c1ccc2cc(O[C@@H]3O[C@H](CO)[C@@H](O)[C@H](O)[C@H]3O)c(O)cc2o1 [Compound 9, esculin]",–,4 ± 2 mM,4 ± 1,Threshold Value FLIPR (hTAS2R16 [3]): 4 ± 2 mM
–,–,"OC[C@H]1O[C@@H](Oc2ccccc2)[C@H](O)[C@@H](O)[C@H]1O [Compound 10, phenyl-beta-D-galactopyranoside]",–,–,40 ± 13,EC50 (hTAS2R16 [3]): > 100 mM; Threshold Value FLIPR (hTAS2R16 [3]): n.r. (No response up to 100 mM)
–,–,"OCC1OC(Oc2ccccc2)C(O)C(O)C1O [Compound 11, phenyl-alpha-D-glucopyranoside]",–,–,9 ± 3,own bitterness during prolonged stimulation (adaptation) (human panelists [2]): desensitized strongly; cross-adaptation with all tested beta-D-glucopyranosides (human panelists [2]; in vivo): failed to cross-adapt; EC50 (hTAS2R16 [3]): > 100 mM; Threshold Value FLIPR (hTAS2R16 [3]): n.r. (No response up to 100 mM); EC50 (human panelists [4]; Homo sapiens): 50 mM
30,0.26,CCNC(N)=S [N-Ethylthiourea],activated,–,–,–
10 to 30,0.1,CN(C)C(=S)N(C)C [Tetramethylthiourea],activated,–,–,–
3,0.018,CC(=S)Nc1ccccc1 [Thioacetanilide],activated,–,–,–

Compound,Approx. Threshold (hTAS2R38) [µM],EC50 (hTAS2R38; read-out: EC50) [mM],receptor activation (in words) (hTAS2R38),Threshold (hTAS2R16 [1]; hTAS2R16),Threshold Value Human (human panelists [4]) [mM],further results
S=C1NCCN1 [2-Imidazolidinethione],10,–,activated,–,–,–
NC(=S)Nc1ccccc1 [Phenylthiocarbamid],0.3,–,activated,–,–,EC50 (hTAS2R38): 0.002 mM
"N,N-dimethylthioformamide [N,N-Dimethyl- thioformamide]",10,0.055,activated,–,–,–
N-Methylthiourea,100,0.6 to 0.8,activated,–,–,–
Thioacetamide,100,–,activated,–,–,–
